Data published in patent US20070128217A1 (priority 2003, published 2007).

Tests used:
[1] = tested on: antibodies in sera from SARS patients (sera 1a, 1b, 2, 6, 37, 62, London, SARS-yellow, SARS-green); format: binding, human; design: Binding of serum 6 to linear peptides of protein X1 of SARS-CoV Urbani / Binding of serum 37 to linear peptides of protein X1 of SARS-CoV Urbani / Binding of serum 6 to looped/cyclic peptide (PEPSCAN-ELISA) / Binding of serum 37 to looped/cyclic peptide (PEPSCAN-ELISA) / Binding of serum 37 to looped/cyclic peptides of protein X1 of SARS-CoV Urbani / Binding of serum 6 to linear peptides of protein X2 / Binding of serum 37 to linear peptides of protein X2 / Binding of serum 37 to looped/cyclic peptides of protein X2 of SARS-CoV Urbani / Binding of serum 6 to linear peptides of protein M of SARS-CoV Urbani / Binding of serum 37 to linear peptides of protein M of SARS-CoV Urbani / Binding of serum 6 to looped/cyclic peptides of protein M of SARS-CoV Urbani / Binding of serum 37 to looped/cyclic peptides of protein M of SARS-CoV Urbani / Binding of serum 6 to linear peptides of protein X3 of SARS-CoV Urbani / Binding of serum 37 to linear peptides of protein X3 of SARS-CoV Urbani / Binding of serum 37 to looped/cyclic peptides of protein X3 of SARS-CoV Urbani / Binding of serum 6 to linear peptides of protein X4 of SARS-CoV Urbani / Binding of serum 37 to linear peptides of protein X4 of SARS-CoV Urbani / Binding of serum 37 to looped/cyclic peptides of protein X4 of SARS-CoV Urbani / Binding of serum 6 to linear peptides of protein X5 of SARS-CoV Urbani / Binding of serum 37 to linear peptides of protein X5 of SARS-CoV Urbani / Binding of serum 37 to looped/cyclic peptides of protein X5 of SARS-CoV Urbani / Binding of serum 6 to linear peptides of protein N of SARS-CoV Urbani / Binding of serum 37 to linear peptides of protein N of SARS-CoV Urbani / Binding of serum 6 to linear peptide (PEPSCAN-ELISA) / Binding of serum 1a to looped/cyclic peptides of protein N of SARS-CoV Urbani / Binding of serum 1b to looped/cyclic peptides of protein N of SARS-CoV Urbani / Binding of serum 2 to looped/cyclic peptides of protein N of SARS-CoV Urbani / Binding of serum 6 to looped/cyclic peptides of protein N of SARS-CoV Urbani / Binding of serum 37 to looped/cyclic peptides of protein N of SARS-CoV Urbani / Binding of serum 62 to looped/cyclic peptides of protein N of SARS-CoV Urbani / Binding of serum London to looped/cyclic peptides of protein N of SARS-CoV Urbani / Binding of serum SARS-green to looped/cyclic peptides of protein N of SARS-CoV Urbani: unit not given here
[2] = tested on: control sera (pooled serum of ten healthy LUMC hospital workers; commercial negative donor pooled serum from the Dutch bloodbank); format: binding, human; design: Binding of Control serum LUMC to linear peptides / Binding of Control serum Blood-bank to linear peptides / Binding of Control serum LUMC to looped peptides / Binding of Control Serum Blood-Bank to Looped peptides / Binding of Control serum LUMC to linear peptides of the protein M of SARS-CoV Urbani / Binding of Control serum Blood-bank to linear peptides of the protein M of SARS-CoV Urbani / Binding of Control serum LUMC to looped peptides of the protein M of SARS-CoV Urbani / Binding of Control Serum Blood-Bank to Looped peptides of the protein M of SARS-CoV Urbani: unit not given here
[3] = tested on: rabbit serum obtained by immunizing a rabbit with the SARS-CoV strain Frankfurt 1; format: binding; design: Binding of a rabbit serum to linear peptides / Binding of a rabbit serum to looped peptides / Rabbit serum linear peptides / Rabbit serum looped peptides / Binding of a rabbit serum to linear peptides of protein N of SARS-CoV Urbani (Rabbit serum linear peptides) / Binding of a rabbit serum to looped/cyclic peptides of protein N of SARS-CoV Urbani (Rabbit serum looped peptides): unit not given here

QASLPFGWLVIGVAF
0.7: Binding of serum 1a to linear peptides of protein X1 of SARS-CoV Urbani [1] | Binding of Control serum Blood-bank to linear peptides [2]
0.2: Binding of serum 2 to looped/cyclic peptide (PEPSCAN-ELISA) [1] | Binding of serum London to linear peptides of protein X1 of SARS-CoV Urbani [1] | Binding of serum London to looped/cyclic peptide (PEPSCAN-ELISA) [1] | Binding of serum SARS-green to looped/cyclic peptide (PEPSCAN-ELISA) [1] | Binding of serum SARS-yellow to looped/cyclic peptide (PEPSCAN-ELISA) [1]
0.6: Binding of serum 1b to linear peptides of protein X1 of SARS-CoV Urbani [1] | Binding of serum 2 to linear peptides of protein X1 of SARS-CoV Urbani [1] | Binding of serum 37 to linear peptides of protein X1 of SARS-CoV Urbani [1] | Binding of serum 62 to linear peptides of protein X1 of SARS-CoV Urbani [1] | Binding of Control serum LUMC to linear peptides [2]
0.1: Binding of serum SARS-green to linear peptides of protein X1 of SARS-CoV Urbani [1]
0.3: Binding of serum 1b to looped/cyclic peptide (PEPSCAN-ELISA) [1] | Binding of serum 6 to looped/cyclic peptide (PEPSCAN-ELISA) [1] | Binding of a rabbit serum to linear peptides [3]
0.4: Binding of serum 1a to looped/cyclic peptide (PEPSCAN-ELISA) [1] | Binding of serum 6 to linear peptides of protein X1 of SARS-CoV Urbani [1] | Binding of serum 37 to looped/cyclic peptide (PEPSCAN-ELISA) [1] | Binding of serum 62 to looped/cyclic peptide (PEPSCAN-ELISA) [1] | Binding of Control Serum Blood-Bank to Looped peptides [2] | Binding of Control serum LUMC to looped peptides [2] | Binding of a rabbit serum to looped peptides [3]
0.5: Binding of serum SARS-yellow to linear peptides of protein X1 of SARS-CoV Urbani [1]

QEEVQQELYSPLFLI
0.6: Binding of serum 2 to linear peptides of protein X4 of SARS-CoV Urbani [1] | Binding of serum 6 to linear peptides of protein X4 of SARS-CoV Urbani [1]
0.9: Binding of serum 1b to linear peptides of protein X4 of SARS-CoV Urbani [1]
0.7: Binding of Control Serum Blood-Bank to Looped peptides [2]
0.8: Binding of serum 1a to linear peptides of protein X4 of SARS-CoV Urbani [1] | Binding of serum 37 to linear peptides of protein X4 of SARS-CoV Urbani [1] | Binding of serum 62 to linear peptides of protein X4 of SARS-CoV Urbani [1] | Binding of serum London to linear peptides of protein X4 of SARS-CoV Urbani [1] | Binding of serum SARS-yellow to linear peptides of protein X4 of SARS-CoV Urbani [1] | Binding of Control serum Blood-bank to linear peptides [2] | Binding of Control serum LUMC to linear peptides [2] | Binding of Control serum LUMC to looped peptides [2]
recognized in looped/cyclic form: Recognition of the peptide by sera of SARS-CoV infected individuals, and form (linear, looped/cyclic) in which it is recognized [1]
1.0: Binding of serum SARS-green to linear peptides of protein X4 of SARS-CoV Urbani [1]
0.4: Rabbit serum linear peptides [3] | Rabbit serum looped peptides [3]

QELLIQQWIQFMMSR
1.2: Binding of serum London to looped/cyclic peptides of protein X2 of SARS-CoV Urbani [1]
0.5: Binding of serum 1a to looped/cyclic peptides of protein X2 of SARS-CoV Urbani [1] | Binding of serum 1b to looped/cyclic peptides of protein X2 of SARS-CoV Urbani [1] | Binding of serum 37 to linear peptides of protein X2 [1] | Binding of serum 37 to looped/cyclic peptides of protein X2 of SARS-CoV Urbani [1] | Binding of serum 62 to linear peptides of protein X2 [1] | Binding of serum SARS-yellow to looped/cyclic peptides of protein X2 of SARS-CoV Urbani [1] | Binding of Control serum Blood-bank to linear peptides [2] | Binding of Control serum LUMC to looped peptides [2]
0.4: Binding of serum 1b to linear peptides of protein X2 [1] | Binding of serum 2 to linear peptides of protein X2 [1] | Binding of serum London to linear peptides of protein X2 [1] | Binding of a rabbit serum to looped peptides [3]
0.7: Binding of serum 1a to linear peptides of protein X2 [1] | Binding of serum 62 to looped/cyclic peptides of protein X2 of SARS-CoV Urbani [1] | Binding of Control Serum Blood-Bank to Looped peptides [2]
0.6: Binding of serum 2 to looped/cyclic peptides of protein X2 of SARS-CoV Urbani [1] | Binding of serum 6 to looped/cyclic peptides of protein X2 of SARS-CoV Urbani [1] | Binding of serum SARS-green to linear peptides of protein X2 [1] | Binding of serum SARS-yellow to linear peptides of protein X2 [1]
0.3: Binding of serum 6 to linear peptides of protein X2 [1] | Binding of serum SARS-green to looped/cyclic peptides of protein X2 of SARS-CoV Urbani [1] | Binding of Control serum LUMC to linear peptides [2] | Binding of a rabbit serum to linear peptides [3]
